# Results reported in ChEMBL document CHEMBL1137017, “In vitro antiviral activity and cross-resistance profile of PL-100, a novel protease inhibitor of human immunodeficiency virus type 1” (Antimicrob Agents Chemother, 2007).
# Key:
# [1] = test system: Human immunodeficiency virus 1; assay: Resistance index, ratio of EC50 for HIV1 with protease 54V/84V mutation to EC50 for wild type HIV1 NL4-3 in HEK293 cells after 48 hrs by replication-deffective luciferase reporter gene-based phenotypic assay; assay type: functional
# [2] = test system: Human immunodeficiency virus 1; assay: Resistance index, ratio of EC50 for HIV1 with protease 54V/82A mutation to EC50 for wild type HIV1 NL4-3 in HEK293 cells after 48 hrs by replication-deffective luciferase reporter gene-based phenotypic assay; assay type: functional
# [3] = test system: Human immunodeficiency virus 1; assay: Resistance index, ratio of EC50 for HIV1 with protease 46I mutation to EC50 for wild type HIV1 NL4-3 in HEK293 cells after 48 hrs by replication-deffective luciferase reporter gene-based phenotypic assay; assay type: functional
# [4] = test system: Human immunodeficiency virus 1; assay: Resistance index, ratio of EC50 for HIV1 with protease 46I/82T/84V/90M mutation to EC50 for wild type HIV1 NL4-3 in HEK293 cells after 48 hrs by replication-deffective luciferase reporter gene-based phenotypic assay; assay type: functional
# [5] = test system: Human immunodeficiency virus 1; assay: Resistance index, ratio of EC50 for HIV1 with protease 46L/48V/82A/84V mutation to EC50 for wild type HIV1 NL4-3 in HEK293 cells after 48 hrs by replication-deffective luciferase reporter gene-based phenotypic assay; assay type: functional
# [6] = test system: Human immunodeficiency virus 1; assay: Resistance index, ratio of EC50 for HIV1 with protease 33F/46I/84V/88D/90M mutation to EC50 for wild type HIV1 NL4-3 in HEK293 cells after 48 hrs by replication-deffective luciferase reporter gene-based phenotypic assay; assay type: functional
# [7] = test system: Human immunodeficiency virus 1; assay: Resistance index, ratio of EC50 for non-B type HIV1 with protease 46I/47V/84V mutation to EC50 for wild type HIV1 NL4-3 in HEK293 cells after 48 hrs by replication-deffective luciferase reporter gene-based phenotypic assay; assay type: functional
# [8] = test system: Human immunodeficiency virus 1; assay: Resistance index, ratio of EC50 for HIV1 with protease 46L mutation to EC50 for wild type HIV1 NL4-3 in HEK293 cells after 48 hrs by replication-deffective luciferase reporter gene-based phenotypic assay; assay type: functional
# [9] = test system: Human immunodeficiency virus 1; assay: Resistance index, ratio of EC50 for HIV1 with protease 46I/82A/84V/90M mutation to EC50 for wild type HIV1 NL4-3 in HEK293 cells after 48 hrs by replication-deffective luciferase reporter gene-based phenotypic assay; assay type: functional
# [10] = test system: Human immunodeficiency virus 1; assay: Resistance index, ratio of EC50 for HIV1 with protease 46I/50L/54V/82A mutation to EC50 for wild type HIV1 NL4-3 in HEK293 cells after 48 hrs by replication-deffective luciferase reporter gene-based phenotypic assay; assay type: functional
# [11] = test system: Human immunodeficiency virus 1; assay: Resistance index, ratio of EC50 for HIV1 with protease 37T/41K/70E mutation to EC50 for wild type HIV1 NL4-3 in HEK293 cells after 48 hrs by replication-deffective luciferase reporter gene-based phenotypic assay; assay type: functional
# [12] = test system: Human immunodeficiency virus 1; assay: Resistance index, ratio of EC50 for HIV1 with protease 33F/54L/82A/84V mutation to EC50 for wild type HIV1 NL4-3 in HEK293 cells after 48 hrs by replication-deffective luciferase reporter gene-based phenotypic assay; assay type: functional
# [13] = test system: Human immunodeficiency virus 1; assay: Resistance index, ratio of EC50 for HIV1 with protease 33F/54V/82A/84V/90M mutation to EC50 for wild type HIV1 NL4-3 in HEK293 cells after 48 hrs by replication-deffective luciferase reporter gene-based phenotypic assay; assay type: functional
# [14] = test system: Human immunodeficiency virus 1; assay: Resistance index, ratio of EC50 for HIV1 with protease 33F/54V/82A/84V mutation to EC50 for wild type HIV1 NL4-3 in HEK293 cells after 48 hrs by replication-deffective luciferase reporter gene-based phenotypic assay; assay type: functional
# Protease = Protease (Human immunodeficiency virus 1, UniProt Q9YQ12); assay: Inhibition of HIV1 protease
# Chain of Protease (Q9YQ12 whole entry): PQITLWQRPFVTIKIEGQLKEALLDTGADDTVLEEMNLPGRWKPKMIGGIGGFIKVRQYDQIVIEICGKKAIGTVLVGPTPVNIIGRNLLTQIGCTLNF
# [15] = Selectivity index, ratio of CC50 for human MT4 cells to EC50 for HIV1 NL4-3; assay type: toxicity, cell-based; conditions: read-out: Ratio CC50/EC50
# [16] = test system: Human immunodeficiency virus 1; assay: Resistance index, ratio of EC50 for HIV1 with protease 46I/53L/82T/90M mutation to EC50 for wild type HIV1 NL4-3 in HEK293 cells after 48 hrs by replication-deffective luciferase reporter gene-based phenotypic assay; assay type: functional
# [17] = test system: Human immunodeficiency virus 1; assay: Resistance index, ratio of EC50 for HIV1 with protease 54V/82A/84V/90M mutation to EC50 for wild type HIV1 NL4-3 in HEK293 cells after 48 hrs by replication-deffective luciferase reporter gene-based phenotypic assay; assay type: functional
# [18] = test system: Human immunodeficiency virus 1; assay: Resistance index, ratio of EC50 for HIV1 with protease 46I/50V/54V mutation to EC50 for wild type HIV1 NL4-3 in HEK293 cells after 48 hrs by replication-deffective luciferase reporter gene-based phenotypic assay; assay type: functional
# [19] = test system: Human immunodeficiency virus 1; assay: Resistance index, ratio of EC50 for HIV1 with protease 46I/50V mutation to EC50 for wild type HIV1 NL4-3 in HEK293 cells after 48 hrs by replication-deffective luciferase reporter gene-based phenotypic assay; assay type: functional
# [20] = test system: Human immunodeficiency virus 1; assay: Resistance index, ratio of EC50 for HIV1 with protease 32I/46L/47V/84V mutation to EC50 for wild type HIV1 NL4-3 in HEK293 cells after 48 hrs by replication-deffective luciferase reporter gene-based phenotypic assay; assay type: functional
# [21] = test system: Human immunodeficiency virus 1; assay: Resistance index, ratio of EC50 for non-B type HIV1 with protease 32I/47A mutation to EC50 for wild type HIV1 NL4-3 in HEK293 cells after 48 hrs by replication-deffective luciferase reporter gene-based phenotypic assay; assay type: functional
# [22] = test system: Human immunodeficiency virus 1; assay: Resistance index, ratio of EC50 for HIV1 with protease 33I/46I/84V/90M mutation to EC50 for wild type HIV1 NL4-3 in HEK293 cells after 48 hrs by replication-deffective luciferase reporter gene-based phenotypic assay; assay type: functional
# [23] = test system: Human immunodeficiency virus 1; assay: Antiviral activity against wild type HIV1 NL4-3 infected in MT4 cells after 6 days by MTT assay; assay type: functional, organism-based; conditions: Human immunodeficiency virus 1, NL4-3, MT4, 144 h
# [24] = test system: Human immunodeficiency virus 1; assay: Resistance index, ratio of EC50 for HIV1 with protease 33F/54L/82A/90M mutation to EC50 for wild type HIV1 NL4-3 in HEK293 cells after 48 hrs by replication-deffective luciferase reporter gene-based phenotypic assay; assay type: functional
# [25] = test system: Human immunodeficiency virus 1; assay: Resistance index, ratio of EC50 for HIV1 with protease 46I/88S mutation to EC50 for wild type HIV1 NL4-3 in HEK293 cells after 48 hrs by replication-deffective luciferase reporter gene-based phenotypic assay; assay type: functional
# [26] = test system: Human immunodeficiency virus 1; assay: Resistance index, ratio of EC50 for HIV1 with protease 46L/50L/54V/82A mutation to EC50 for wild type HIV1 NL4-3 in HEK293 cells after 48 hrs by replication-deffective luciferase reporter gene-based phenotypic assay; assay type: functional
# [27] = test system: Human immunodeficiency virus 1; assay: Resistance index, ratio of EC50 for HIV1 with protease 46I/47A/84V mutation to EC50 for wild type HIV1 NL4-3 in HEK293 cells after 48 hrs by replication-deffective luciferase reporter gene-based phenotypic assay; assay type: functional
# [28] = test system: Human immunodeficiency virus 1; assay: Antiviral activity against wild type HIV1 NL4-3 in HEK293 cells after 48 hrs by replication-deffective luciferase reporter gene-based phenotypic assay; assay type: functional, organism-based; conditions: Human immunodeficiency virus 1, NL4-3, HEK293, 48 h
Structure (SMILES),Ratio EC50 [1],Ratio EC50 [2],Ratio EC50 [3],Ratio EC50 [4],Ratio EC50 [5],Ratio EC50 [6],Ratio EC50 [7],Ratio EC50 [8],Ratio EC50 [9],Ratio EC50 [10],Ratio EC50 [11],Ratio EC50 [12],Ratio EC50 [13],Ratio EC50 [14],Ki (Protease),selectivity ratio [15],Ratio EC50 [16],Ratio EC50 [17],Ratio EC50 [18],Ratio EC50 [19],further results
Cc1c(O)cccc1C(=O)N[C@@H](CSc1ccccc1)[C@H](O)CN1C[C@H]2CCCC[C@H]2C[C@H]1C(=O)NC(C)(C)C,15,12.1,1.6,27.1,5.9,10,5.1,1.7,11.2,14,1.9,17.2,21.1,5.8,0.306 nM,276,32.9,33.1,12.7,1.3,Ratio EC50 [20]: 7.8; Ratio EC50 [21]: 3.1; Ratio EC50 [22]: 28.5; EC50 [23]: 29 nM; Ratio EC50 [24]: 10.4; Ratio EC50 [25]: 4.6; Ratio EC50 [26]: 11.8; Ratio EC50 [27]: 10.4; EC50 [28]: 5.8 nM
COC(=O)N[C@H](C(=O)N[C@@H](Cc1ccccc1)[C@@H](O)CN(Cc1ccc(-c2ccccn2)cc1)NC(=O)[C@@H](NC(=O)OC)C(C)(C)C)C(C)(C)C [ATAZANAVIR],8.3,3.9,0.7,32,21.5,14.7,7.1,0.9,3.8,67.5,1.5,44.5,24.7,5.5,0.039 nM,17800,33.7,50.5,2.4,0.4,Ratio EC50 [20]: 25; Ratio EC50 [21]: 1; Ratio EC50 [22]: 7.5; EC50 [23]: 4 nM; Ratio EC50 [24]: 7.5; Ratio EC50 [25]: 3.1; Ratio EC50 [26]: 68.9; Ratio EC50 [27]: 9.5; EC50 [28]: 1.5 nM
COC(=O)N[C@H](C(=O)NCCCC[C@@H](CO)N(CC(C)C)S(=O)(=O)c1ccc(N)cc1)C(c1ccccc1)c1ccccc1 [PPL-100],0.8,1.8,1.5,4.8,1.2,5.6,4.3,1.1,10.1,4,1.9,31.2,9.6,3.4,0.036 nM,2310,8.3,7,0.5,0.8,Ratio EC50 [20]: 0.6; Ratio EC50 [21]: 1.4; Ratio EC50 [22]: 3.4; EC50 [23]: 16 nM; Ratio EC50 [24]: 30.3; Ratio EC50 [25]: 0.4; Ratio EC50 [26]: 3.2; Ratio EC50 [27]: 14.8; EC50 [28]: 5.3 nM
